The source of these data is US20240190872A1, “FABI INHIBITORS FOR GRAM-NEGATIVE PATHOGENS” (THE BOARD OF TRUSTEES OF THE UNIVERSITY OF ILLINOIS, priority 2021, published 2024).

For one series, the system named is E. coli ΔtolC (JW5503). Type of series: cell-based. The procedure, abridged: (§1)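 MICs by CLSI broth microdilution in cation-adjusted Mueller-Hinton broth, performed in biological triplicate. Strains: efflux-deficient E. coli ΔtolC (JW5503, KEIO collection) and K. pneumoniae BAA-2472 (ATCC).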
The next series has as its system S. aureus ATCC 29213. The experiment in a line: Antimicrobial susceptibility test (MIC), micro-dilution broth. Type of series: cell-based. To be noted: Staphylococcus aureus, ATCC29213. Put shortly: (§2)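 CLSI micro-dilution broth method in cation-adjusted Mueller-Hinton broth, in biological triplicate; human serum (pooled, filtered) was also used.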
(Broth dilution looks for growth in wells or tubes with falling amounts of substance.)

In the next series the test system is E. coli ATCC 25922. The series can be described thus: MIC. Type of series: cell-based. The conditions noted are these: Escherichia coli, ATCC25922; line under drawing, Table 8-1.
A short description of series [1]: in vitro. The conditions noted are these: mouse, plasma.
The target of another series is HERG (Homo sapiens (Human), UniProt Q12809). The experiment in a line: cell-based.
Chain of HERG (Q12809 whole entry): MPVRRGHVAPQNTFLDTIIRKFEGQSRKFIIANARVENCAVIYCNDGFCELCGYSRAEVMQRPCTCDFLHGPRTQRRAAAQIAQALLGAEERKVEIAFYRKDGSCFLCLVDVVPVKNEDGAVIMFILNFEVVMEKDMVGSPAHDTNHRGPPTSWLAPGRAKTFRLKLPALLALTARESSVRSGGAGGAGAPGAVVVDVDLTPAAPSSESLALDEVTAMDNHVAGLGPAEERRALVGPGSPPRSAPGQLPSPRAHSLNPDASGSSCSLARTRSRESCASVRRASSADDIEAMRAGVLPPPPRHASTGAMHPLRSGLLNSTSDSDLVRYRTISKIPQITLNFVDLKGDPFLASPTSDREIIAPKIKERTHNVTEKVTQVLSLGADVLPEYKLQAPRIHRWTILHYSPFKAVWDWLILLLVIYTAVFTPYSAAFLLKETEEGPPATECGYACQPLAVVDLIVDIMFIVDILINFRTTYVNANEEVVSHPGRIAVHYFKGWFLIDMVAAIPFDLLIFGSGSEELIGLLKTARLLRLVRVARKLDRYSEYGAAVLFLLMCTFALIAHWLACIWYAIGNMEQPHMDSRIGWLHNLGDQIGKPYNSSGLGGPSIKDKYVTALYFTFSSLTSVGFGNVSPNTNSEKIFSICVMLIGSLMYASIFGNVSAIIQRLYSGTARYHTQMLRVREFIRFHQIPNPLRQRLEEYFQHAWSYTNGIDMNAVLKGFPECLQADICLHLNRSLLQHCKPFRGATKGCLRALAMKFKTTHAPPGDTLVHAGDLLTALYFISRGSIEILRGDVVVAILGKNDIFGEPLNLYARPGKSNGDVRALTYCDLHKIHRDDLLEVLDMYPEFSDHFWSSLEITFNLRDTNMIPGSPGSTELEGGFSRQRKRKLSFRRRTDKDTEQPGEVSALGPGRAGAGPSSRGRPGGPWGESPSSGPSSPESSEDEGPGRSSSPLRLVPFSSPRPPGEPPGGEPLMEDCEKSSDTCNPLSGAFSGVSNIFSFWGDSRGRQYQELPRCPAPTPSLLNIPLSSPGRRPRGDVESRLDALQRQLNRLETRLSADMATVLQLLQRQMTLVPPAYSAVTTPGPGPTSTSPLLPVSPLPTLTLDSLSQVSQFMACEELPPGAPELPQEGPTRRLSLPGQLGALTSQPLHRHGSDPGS
In a further series the test system is E. coli AR 0048. The series can be described thus: microbe, parasite or virus in culture. Type of series: cell-based. The conditions noted are these: Escherichia coli, AR0048, read-out: MIC E. coli AR 0048. Put shortly:
(§3)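 CLSI broth micro-dilution in cation-adjusted Mueller-Hinton broth.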

The subject of the next series is K. pneumoniae AR 0113. The series can be described thus: microbe, parasite or virus in culture. Type of series: cell-based. To be noted: Klebsiella pneumoniae, AR0113, read-out: MIC K. pneumoniae AR 0113. The procedure, abridged: as §3
A further series deals with E. coli AR 0085. The experiment in a line: microbe, parasite or virus in culture. Type of series: cell-based. To be noted: Escherichia coli, AR0085, read-out: MIC E. coli AR 0085. Put shortly: as §3
A further series has as its system A. baumannii AR 0299. The series can be described thus: microbe, parasite or virus in culture. To be noted: Acinetobacter baumannii, AR0299, read-out: MIC A. baumannii AR 0299. Type of series: cell-based. The procedure, abridged:
as §3

For another series, the system named is A. baumannii AR 0313. The series can be described thus: microbe, parasite or virus in culture. To be noted: Acinetobacter baumannii, AR0313, read-out: MIC A. baumannii AR 0313. Type of series: cell-based. Put shortly: as §3
The test system of another series is A. baumannii AR 0033. The series can be described thus: microbe, parasite or virus in culture. To be noted: Acinetobacter baumannii, AR0033, read-out: MIC A. baumannii AR 0033. Type of series: cell-based. The procedure, abridged: as §3
In a further series the test system is A. baumannii AR 0273. The series can be described thus: microbe, parasite or virus in culture. Type of series: cell-based. To be noted: Acinetobacter baumannii, AR0273, read-out: MIC A. baumannii AR 0273. Put shortly: as §3
In a further series the test system is K. pneumoniae AR 0066. The experiment in a line: microbe, parasite or virus in culture. Type of series: cell-based. The conditions noted are these: Klebsiella pneumoniae, AR0066, read-out: MIC K. pneumoniae AR 0066. Put shortly:
as §3

A further series deals with K. pneumoniae AR 0560. The series can be described thus: microbe, parasite or virus in culture. Type of series: cell-based. The conditions noted are these: Klebsiella pneumoniae, AR0560, read-out: MIC K. pneumoniae AR 0560. Put shortly:
as §3

The subject of a further series is H. sapiens A549. The experiment in a line: In-vitro cytotoxicity. Type of series: cell-based.
A further series relates to E. coli MG1655. The series can be described thus: Antimicrobial susceptibility test (MIC). Type of series: cell-based. The conditions noted are these: Escherichia coli, MG1655. Put shortly: as §2
The target in a further series is A. baumannii FabI (Acinetobacter baumannii, UniProt D0CAD5). The series can be described thus: biochemical. To be noted: purified FabI, apparent inhibition constant; read-out: A. baumannii FabI Ki^app. How it is done: Mode of Action. To probe the effects of varying ring systems and amine placement on FabI target engagement, the apparent inhibition constants (Ki^app) for select compounds were determined using purified FabI. The goal of these studies was two-fold, to comparatively assess fabimycin, Debio-1452-NH3, and Debio-1452, and to also assess differential activity against the E. coli and A. baumannii versions of FabI. FabI from E. coli and A. baumannii were recombinantly expressed and purified, and the ability for each compound to inhibit the activity of these enzymes was evaluated using a standard FabI enzyme assay.
Chain of A. baumannii FabI (D0CAD5 1-288): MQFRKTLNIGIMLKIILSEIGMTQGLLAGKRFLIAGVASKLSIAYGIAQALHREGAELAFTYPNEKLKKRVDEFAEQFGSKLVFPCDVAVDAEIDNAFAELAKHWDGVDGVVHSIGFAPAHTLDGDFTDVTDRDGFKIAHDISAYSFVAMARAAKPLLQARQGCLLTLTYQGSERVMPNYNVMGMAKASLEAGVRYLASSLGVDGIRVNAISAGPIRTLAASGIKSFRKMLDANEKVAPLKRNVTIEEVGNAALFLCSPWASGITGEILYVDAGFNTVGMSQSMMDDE
In vitro FabI inhibition assay. NADH (Sigma-Aldrich, Cat# N8129) and crotonoyl-CoA (Sigma-Aldrich, Cat# 28007) were both diluted into activity buffer [100 mM potassium glutamate (pH 7.8)], and working solution was dispensed into two columns of round-bottom 96-well plate (330 μL per well). Inhibitors, dissolved in DMSO at 200× final concentration, were added to each well via multichannel pipette (2.48 μL per well). After thorough mixing, this mixture was transferred to UV-transparent plate (UV-STAR half-area 96-well plate, Greiner Bio-One, Cat#675801, 100 μL per well, three technical replicates per inhibitor concentration). Plate was placed in plate-reader (SpectraMax 190, Molecular Devices) under temperature control (25° C.), and temperature was allowed to equilibrate. Fresh aliquot of enzyme from −80° C. was thawed on ice and diluted in activity buffer. Enzyme working solution was added to plate (50 μL per well, 20 nM enzyme final). After shaking for 5 s, reaction progress was monitored by absorbance at 340 nm every 15 s for 90 min. Linear portion of reaction progress curve was fit using plate-reader software (SoftMax Pro 7.0). Percent activity was calculated relative to DMSO-only and no-enzyme controls in each plate. Percent activity curves were fit to Morrison's quadratic using Graphpad Prism 6.0 to obtain apparent Ki.

The test system of another series is H. sapiens HFF-1. The series can be described thus: In-vitro cytotoxicity. Type of series: cell-based.
A short description of series [2]: in vitro. The conditions noted are these: human, plasma.
The next series has as its system K. pneumoniae BAA 2472. The experiment in a line: microbe, parasite or virus in culture. To be noted: Klebsiella pneumoniae, BAA2472, read-out: MIC K. pneumoniae BAA 2472. Type of series: cell-based. Put shortly:
as §1

≈ marks a conversion by molar mass, not a printed value. Where two headings read alike, the source gives them in different places.

With `O=C1CCc2cc(/C=C/C(=O)N3CC4C=C(c5ccccc5)CC4C3)cnc2N1` (stereo not drawn) [reference compound], the “MIC E. coli ΔtolC mutant” value against E. coli ΔtolC (JW5503) (line under drawing, Table 8-1) is listed as “MIC E. coli ΔtolC mutant = ≤0.03 ug/mL”. Also, the MIC in the series with S. aureus ATCC 29213 (line under drawing, Table 8-1, read-out: MIC S. aureus ATCC 29213) was 0.016 µg/mL (≈ 0.0415 µM); in the series with E. coli ATCC 25922, above 32 µg/mL.

For the molecule `Cc1c(CN(C)C(=O)/C=C/c2cnc3c(c2)CCC(=O)N3)oc2ccccc12` [Debio-1452, (E)-N-methyl-N-((3-methylbenzofuran-2-yl)methyl)-3-(7-oxo-5,6,7,8-tetrahydro-1,8-naphthyridin-3-yl)acrylamide, reference compound], in the series on E. coli ΔtolC (JW5503) (efflux deficient E. coli ΔtolC), the “MIC E. coli ΔtolC” value worked out at 0.062 µg/mL (≈ 0.165 µM). Further, the fraction unbound (in general, the share of the substance not bound to proteins or other matrix) in “in vitro [1]” was 0.006; in “in vitro [2]” it was 0.019. The IC50 (as a rule, the concentration at which inhibition is half-maximal) was determined as 5.5 µM against HERG, 166 ± 12 µM in the series on H. sapiens A549 (cytotoxicity) and 165 ± 42 µM in the series with H. sapiens HFF-1 (cytotoxicity). Besides, the MIC in the series with S. aureus ATCC 29213 (S. aureus ATCC 29213, read-out: MIC S. aureus 29213) was 0.008 µg/mL (≈ 0.0213 µM); in the series on E. coli AR 0048 it was above 32 µg/mL; with K. pneumoniae AR 0113, above 32 µg/mL; in the series on E. coli AR 0085 it was above 32 µg/mL; in the series with A. baumannii AR 0299, above 32 µg/mL; with A. baumannii AR 0313, above 32 µg/mL. In addition, the MIC with A. baumannii AR 0033, with A. baumannii AR 0273, with K. pneumoniae AR 0066, in the series with K. pneumoniae AR 0560, in the series on E. coli MG1655 and with K. pneumoniae BAA 2472 was above 32 µg/mL each time. The inhibition – broadly, the percentage by which the read-out fell short of the control – at 30 µM is 13 ± 6% in the series on H. sapiens A549 and 18 ± 6% in the series with H. sapiens HFF-1. Besides, the Ki at A. baumannii FabI is 799 ± 229 nM.
